Assay results from ChEMBL document CHEMBL2424561, “Discovery of new antitubercular agents by combining pyrazoline and benzoxazole pharmacophores: design, synthesis and insights into the binding interactions” (2013).
In brackets after ≈: the same amount, converted by molar mass.

test system: Mycobacterium tuberculosis; test: Antitubercular activity against Mycobacterium tuberculosis H37Rv after 6 weeks; assay type: functional

Compared with `CC(=O)N1N=C(c2ccccc2)CC1c1cc(Cl)c2oc(S)nc2c1` (stereo not given), `CC(=O)N1N=C(c2ccccc2)CC1c1cc(Cl)c2oc(N)nc2c1` (stereo not given) is 20-fold higher in MIC: 1.25 µg/mL (≈ 3.36 µM) for the first, 25 µg/mL (≈ 70.5 µM) for the second.

Going from `CC(=O)N1N=C(c2ccccc2Br)CC1c1cc(Cl)c2oc(S)nc2c1` (stereo not given) to `CC(=O)N1N=C(c2ccccc2Br)CC1c1cc(Cl)c2oc(N)nc2c1` (stereo not given), the MIC falls from 6.25 µg/mL (≈ 13.9 µM) to 3.25 µg/mL (≈ 7.49 µM) (1.9-fold).

Compared with `COc1cc(C2CC(c3ccccc3)=NN2C(C)=O)cc(N)c1O` (stereo not given), `CC(=O)N1N=C(c2ccccc2)CC1c1cc(N)c(O)c(Cl)c1` (stereo not given) is 7.7-fold lower in MIC: 25 µg/mL (≈ 76.8 µM) for the first, 3.25 µg/mL (≈ 9.85 µM) for the second.

`COc1cc(C2CC(c3ccc(Cl)cc3Cl)=NN2C(C)=O)cc(N)c1O` (stereo not given) and `COc1cc(C2CC(c3ccc(Cl)cc3Cl)=NN2C(C)=O)cc2nc(N)oc12` (stereo not given) are the same in MIC: 12.5 µg/mL (≈ 31.7 µM) for the first, 12.5 µg/mL (≈ 29.8 µM) for the second.

First: COc1cc(C2CC(c3ccc(F)cc3)=NN2C(C)=O)cc(N)c1O (stereo not given)
Second: COc1cc(C2CC(c3ccc(F)cc3)=NN2C(C)=O)cc2nc(N)oc12 (stereo not given)
The MIC of the first is 2-fold higher: 12.5 µg/mL (≈ 36.4 µM) for the first, 6.25 µg/mL (≈ 17 µM) for the second.

`COc1cc(C2CC(c3ccccc3Br)=NN2C(C)=O)cc(N)c1O` (stereo not given) and `CC(=O)N1N=C(c2ccccc2Br)CC1c1cc(N)c(O)c(Cl)c1` (stereo not given) are the same in MIC: 12.5 µg/mL (≈ 30.9 µM) for the first, 12.5 µg/mL (≈ 30.6 µM) for the second.

Compared with `CC(=O)N1N=C(c2ccccc2)CC1c1ccc(O)c(N)c1` (stereo not given), `CC(=O)N1N=C(c2ccccc2Br)CC1c1ccc(O)c(N)c1` (stereo not given) is 2-fold lower in MIC: 1.25 µg/mL (≈ 4.23 µM) for the first, 0.625 µg/mL (≈ 1.67 µM) for the second.

First: COc1cc(C2CC(c3ccccc3)=NN2C(C)=O)cc2nc(N)oc12 (stereo not given)
Second: COc1cc(C2CC(c3ccccc3)=NN2C(C)=O)cc2nc(S)oc12 (stereo not given)
The MIC of the first is 10-fold lower: 0.625 µg/mL (≈ 1.78 µM) for the first, 6.25 µg/mL (≈ 17 µM) for the second.

`COc1cc(C2CC(c3ccccc3Br)=NN2C(C)=O)cc2nc(N)oc12` (stereo not given) and `COc1cc(C2CC(c3ccccc3Br)=NN2C(C)=O)cc2nc(S)oc12` (stereo not given) are the same in MIC: 12.5 µg/mL (≈ 29.1 µM) for the first, 12.5 µg/mL (≈ 28 µM) for the second.

`CC(=O)N1N=C(c2ccccc2)CC1c1ccc2oc(N)nc2c1` (stereo not given) and `CC(=O)N1N=C(c2ccccc2)CC1c1ccc2oc(S)nc2c1` (stereo not given) are the same in MIC: 25 µg/mL (≈ 78 µM) for the first, 25 µg/mL (≈ 74.1 µM) for the second.

Compared with `CC(=O)N1N=C(c2ccccc2Br)CC1c1ccc2oc(N)nc2c1` (stereo not given), `CC(=O)N1N=C(c2ccccc2Br)CC1c1ccc2oc(S)nc2c1` (stereo not given) is 2-fold lower in MIC: 25 µg/mL (≈ 62.6 µM) for the first, 12.5 µg/mL (≈ 30 µM) for the second.

First: COc1cc(C2CC(c3ccc(Cl)cc3Cl)=NN2C(C)=O)cc2nc(S)oc12 (stereo not given)
Second: COc1cc(C2CC(c3ccc(F)cc3)=NN2C(C)=O)cc2nc(S)oc12 (stereo not given)
The MIC of the first is 2-fold lower: 6.25 µg/mL (≈ 14.3 µM) for the first, 12.5 µg/mL (≈ 32.4 µM) for the second.

With `NNC(=O)c1ccncc1` [ISONIAZID] the MIC was 0.625 µg/mL (≈ 4.56 µM).
